Measurements as given in patent US20240208961A1, “EIF4E INHIBITORS AND USES THEREOF” (PIC Therapeutics, Inc., priority 2022, published 2024).
“And” between values parts separate entries of the source, which are not always exact repeats. Equal values may be shown once. Read-outs that look alike come from different tables or passages of the source.

Columns and labels:
[1] = Pharmacokinetic studies of certain compounds in female Balb/c mice (Example 5); type: in vivo
In short: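 Female Balb/c mice (N=9) were fasted overnight and given compound PO as a suspension in 1% CMC/0.2% Tween 80 or IV in 5% DMSO/5% Solutol HS15/90% saline. Facial-vein plasma was taken from 0.083 to 24 h and assayed by LC-MS. Parameters are non-compartmental, and F was based on AUCINF or AUClast.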

[2] = system: T47D; experiment: Cell viability assay, adherent cell line, 5 day Alamar Blue (Example 8): T47D; type: cell-based; conditions: Homo sapiens, 120 h, Breast Cancer Cell Viability
[3] = system: NCIH510A; experiment: Cell viability assay, suspension cell line, 5 day Alamar Blue (Example 8): NCIH510A; type: cell-based; conditions: Homo sapiens, NCI-H510A, 120 h, Small Cell Lung Cancer Cell Line
[4] = I-29 IV 1.48 mg/kg, 4 hr, BQL = below quantifiable limit of 3.00 ng/mL
[5] = I-29 IV 1.48 mg/kg, 8 hr, BQL = below quantifiable limit of 3.00 ng/mL
[6] = I-29 IV 1.48 mg/kg, 24 hr, BQL = below quantifiable limit of 3.00 ng/mL
[7] = I-29 PO 23.8 mg/kg, 24 hr, BQL = below quantifiable limit of 3.00 ng/mL
[8] = mouse, plasma, I-29 IV 1.48 mg/kg
[9] = mouse, plasma, I-29 PO 23.8 mg/kg

For `CC(C)Cc1sc(Nc2ncc(-c3cccs3)cc2C(=O)O)nc1C1CCC(F)(F)CC1` [Compound I-29], the “Plasma concentration Individual” value ([1]; I-29 IV 1.48 mg/kg, 0.083 hr, 1.48 mg/kg) was 0.641 µg/mL and 0.603 µg/mL, the “Plasma concentration Individual” value ([1]; I-29 IV 1.48 mg/kg, 0.25 hr, 1.48 mg/kg) was 0.121 µg/mL and 0.162 µg/mL and 0.336 µg/mL and the “Plasma concentration Individual” value ([1]; I-29 IV 1.48 mg/kg, 0.5 hr, 1.48 mg/kg) was 0.0712 µg/mL and 0.051 µg/mL. The “Plasma concentration Individual” value ([1]; I-29 IV 1.48 mg/kg, 1 hr, 1.48 mg/kg) was 0.0159 µg/mL and 0.0811 µg/mL and 0.0296 µg/mL, the “Plasma concentration Individual” value ([1]; I-29 IV 1.48 mg/kg, 2 hr, 1.48 mg/kg) was 0.00354 µg/mL and 0.00497 µg/mL and 0.00724 µg/mL and the “Plasma concentration Individual” value [1, 4] was “BQL”. For the same compound, the “Plasma concentration Mean” value [1, 4] was “BQL”, the “Plasma concentration Individual” value [1, 5] was “BQL” and the “Plasma concentration Mean” value [1, 5] was “BQL”. For the same compound, the “Plasma concentration Individual” value [1, 6] was “BQL”, the “Plasma concentration Mean” value [1, 6] was “BQL” and the F ([1]; I-29 PO 23.8 mg/kg vs IV 1.48 mg/kg) was 67.3%. For the same compound, the “Plasma concentration Individual” value ([1]; I-29 PO 23.8 mg/kg, 0.083 hr, 23.8 mg/kg) was 0.0396 µg/mL and 0.0536 µg/mL, the “Plasma concentration Individual” value ([1]; I-29 PO 23.8 mg/kg, 0.25 hr, 23.8 mg/kg) was 0.147 µg/mL and 0.146 µg/mL and the “Plasma concentration Individual” value ([1]; I-29 PO 23.8 mg/kg, 0.5 hr, 23.8 mg/kg) was 0.344 µg/mL and 0.464 µg/mL. The “Plasma concentration Individual” value ([1]; I-29 PO 23.8 mg/kg, 1 hr, 23.8 mg/kg) was 0.237 µg/mL and 0.618 µg/mL and 0.703 µg/mL, the “Plasma concentration Individual” value ([1]; I-29 PO 23.8 mg/kg, 2 hr, 23.8 mg/kg) was 0.62 µg/mL and 0.64 µg/mL and the “Plasma concentration Individual” value ([1]; I-29 PO 23.8 mg/kg, 4 hr, 23.8 mg/kg) was 0.147 µg/mL and 0.218 µg/mL. The “Plasma concentration Individual” value ([1]; I-29 PO 23.8 mg/kg, 8 hr, 23.8 mg/kg) was 0.106 µg/mL and 0.0759 µg/mL, the “Plasma concentration Individual” value [1, 7] was “BQL” and the “Plasma concentration Mean” value [1, 7] was “BQL”. The concentration at 0.083 hr ([1]; female, Balb/c, mouse, plasma, iv, 1.48 mg/kg, I-29 IV 1.48 mg/kg, 0.083 hr, read-out: Plasma concentration Individual) was 0.558 µg/mL, the concentration at 0.083 hr ([1]; female, Balb/c, mouse, plasma, iv, 1.48 mg/kg, I-29 IV 1.48 mg/kg, 0.083 hr, read-out: Plasma concentration Mean) was 0.601 µg/mL and the concentration at 0.25 hr ([1]; female, Balb/c, mouse, plasma, iv, 1.48 mg/kg, I-29 IV 1.48 mg/kg, 0.25 hr, read-out: Plasma concentration Mean) was 0.206 µg/mL. The concentration at 0.5 h ([1]; female, Balb/c, mouse, plasma, iv, 1.48 mg/kg, I-29 IV 1.48 mg/kg, 0.5 hr, read-out: Plasma concentration Individual) was 0.0955 µg/mL, the concentration at 0.5 h ([1]; female, Balb/c, mouse, plasma, iv, 1.48 mg/kg, I-29 IV 1.48 mg/kg, 0.5 hr, read-out: Plasma concentration Mean) was 0.0726 µg/mL and the concentration at 1 h ([1]; female, Balb/c, mouse, plasma, iv, 1.48 mg/kg, I-29 IV 1.48 mg/kg, 1 hr, read-out: Plasma concentration Mean) was 0.0422 µg/mL. For the same compound, the concentration at 2 hr ([1]; female, Balb/c, mouse, plasma, iv, 1.48 mg/kg, I-29 IV 1.48 mg/kg, 2 hr, read-out: Plasma concentration Mean) was 0.00525 µg/mL, the concentration at 0.083 hr ([1]; female, Balb/c, mouse, plasma, po, 23.8 mg/kg, I-29 PO 23.8 mg/kg, 0.083 hr, read-out: Plasma concentration Individual) was 0.0316 µg/mL and the concentration at 0.083 hr ([1]; female, Balb/c, mouse, plasma, po, 23.8 mg/kg, I-29 PO 23.8 mg/kg, 0.083 hr, read-out: Plasma concentration Mean) was 0.0416 µg/mL. For the same compound, the concentration at 0.25 hr ([1]; female, Balb/c, mouse, plasma, po, 23.8 mg/kg, I-29 PO 23.8 mg/kg, 0.25 hr, read-out: Plasma concentration Individual) was 0.16 µg/mL, the concentration at 0.25 hr ([1]; female, Balb/c, mouse, plasma, po, 23.8 mg/kg, I-29 PO 23.8 mg/kg, 0.25 hr, read-out: Plasma concentration Mean) was 0.151 µg/mL and the concentration at 0.5 hr ([1]; female, Balb/c, mouse, plasma, po, 23.8 mg/kg, I-29 PO 23.8 mg/kg, 0.5 hr, read-out: Plasma concentration Individual) was 0.305 µg/mL. For the same compound, the concentration at 0.5 hr ([1]; female, Balb/c, mouse, plasma, po, 23.8 mg/kg, I-29 PO 23.8 mg/kg, 0.5 hr, read-out: Plasma concentration Mean) was 0.371 µg/mL, the concentration at 1 hr ([1]; female, Balb/c, mouse, plasma, po, 23.8 mg/kg, I-29 PO 23.8 mg/kg, 1 hr, read-out: Plasma concentration Mean) was 0.519 µg/mL and the concentration at 2 hr ([1]; female, Balb/c, mouse, plasma, po, 23.8 mg/kg, I-29 PO 23.8 mg/kg, 2 hr, read-out: Plasma concentration Individual) was 0.554 µg/mL. The concentration at 2 hr ([1]; female, Balb/c, mouse, plasma, po, 23.8 mg/kg, I-29 PO 23.8 mg/kg, 2 hr, read-out: Plasma concentration Mean) was 0.605 µg/mL, the concentration at 4 hr ([1]; female, Balb/c, mouse, plasma, po, 23.8 mg/kg, I-29 PO 23.8 mg/kg, 4 hr, read-out: Plasma concentration Individual) was 0.187 µg/mL and the concentration at 4 hr ([1]; female, Balb/c, mouse, plasma, po, 23.8 mg/kg, I-29 PO 23.8 mg/kg, 4 hr, read-out: Plasma concentration Mean) was 0.184 µg/mL. The concentration at 8 hr ([1]; female, Balb/c, mouse, plasma, po, 23.8 mg/kg, I-29 PO 23.8 mg/kg, 8 hr, read-out: Plasma concentration Individual) was 0.0571 µg/mL, the concentration at 8 hr ([1]; female, Balb/c, mouse, plasma, po, 23.8 mg/kg, I-29 PO 23.8 mg/kg, 8 hr, read-out: Plasma concentration Mean) was 0.0797 µg/mL and the AUC(0-inf) [1, 8] was 0.225 µg·h/mL. For the same compound, the AUC(0-t) [1, 8] was 0.222 µg·h/mL, the C0 [1, 8] was 1.02 µg/mL and the MRT inf [1, 8] was 0.33 h. It also gave an MRT last [1, 8] of 0.304 h, a clearance [1, 8] of 6.59 L/h/kg and a half-life [1, 8] of 0.352 h. The Vd ([1]; mouse, plasma, I-29 IV 1.48 mg/kg, read-out: Vss) was 2.18 L/kg, the AUC(0-inf) [1, 9] was 2.43 µg·h/mL and the AUC(0-t) [1, 9] was 2.18 µg·h/mL. For the same compound, the Cmax [1, 9] was 0.605 µg/mL, the MRT inf [1, 9] was 3.51 h and the MRT last [1, 9] was 2.64 h. For the same compound, the Tmax [1, 9] was 2 h, the half-life [1, 9] was 2.17 h and the IC50 [2] was 1 to 8 µM. For the same compound, the IC50 [3] was at most 1 µM.
